# Reference: patent US20150174112A1, “COMPOSITIONS FOR TREATING FRAGILE X AND OTHER DISORDERS METHODS OF USE THEREOF, AND SCREENING FOR COMPOUNDS FOR FRAGILE X AND OTHER DISORDERS” (EMORY UNIVERSITY, priority 2005, published 2015)
# Key:
# Type in all cases: in vivo, Drosophila
# [1] = test system: mushroom body structure in dfmr1 null fly brain; assay: Staining and analysis of mushroom body morphology; details: for mushroom body defects of dfmr1 mutant adults (in words): 0- to 2-day-old adults developed on LF supplemented with drug at optimal viability dose; for brain structural abnormality (mushroom body formation) in treated dFmr1 flies (in words) / percentage of normal brains (mushroom body) after treatment: Example 2; for percentage of normal brains (mushroom body) after treatment: dFmr1 flies, 27% without treatment
# Description: A striking morphological phenotype of dfmr1 deficiency in Drosophila involves structural abnormalities of the mushroom body in the fly brain. The mushroom body, important for Drosophila learning and memory, is an axon-like fiber structure composed of three paired neuronal lobes (the α, β, and γ lobes). In dfmr1 null flies, the β lobes, which normally terminate at the midline cleft, often cross through the midline. In addition, dfmr1 null flies also have missing or misdirected α and β lobes, as well as truncated or over-branched lobes. […] To test whether compounds identified in the viability screen could rescue the mushroom body morphology, 0- to 2-day-old dfmr1 mutant adults were examined that developed on LF supplemented with four of the nine compounds identified above (GABA, nipecotic acid, creatinine, and isopilocarpine).
# Brains from 0- to-2-day-old adults were dissected, fixed, and stained. Anti-Fascicilin II (ID4, Developmental Studies Hybridoma Bank) was used at 1:10 dilution and Alexa anti-mouse secondary antibody (Molecular probes) 1:100. Confocal microscopy was performed using a Leica Scanning laser confocal microscope. Neuronal lobe abnormalities were analyzed and scored by obtaining optical stacks of the α and β lobes as described.
# Futsch = assay: Quantitative Western analysis of Futsch protein in fly head lysates; details: flies raised on LF with drug at effective dosage
# Description: FIG. 3A illustrates a representative Western blot showing Futsch expression in w^1118, dfmr1^3+/−, and dfmr1^3−/− head lysates. Flies were raised on LF with or without drug supplements using the effective dosages. Heads from 0- to 2-day old adult flies were used to prepare protein lysates. β-actin was used as a loading control.
# FIG. 3B illustrates the quantification of relative Futsch protein level from multiple Western blots using Kodak Imaging System software. The quantifications were based on duplicate Western analyses obtained from triplicate collections of […] from two separate drug treatments (6 sets of samples total). The futsch levels were first normalized to β-actin levels, then plotted as the percentage of change of each treatment/genotype compared to w^1118 (no drug), which was set as 100%.
# Additionally, it was tested whether the same four compounds could rescue the biochemical phenotype of Futsch over-expression that is associated with dfmr1 deficiency. The mRNA of Futsch is normally bound and translationally repressed by dFmrp. Thus, loss of dFmrp results in excess Futsch translation.
# Quantitative Western analyses were performed. Briefly, 0- to 2-day-old adult Drosophila heads were obtained, and homogenized in lysis buffer (10 mM Tris (pH 7.5), 150 mM NaCl, 30 mM EDTA (pH 8.0), 0.5% Triton X-100, and 1× complete protease inhibitor (Boehringer Mannheim). 30 fly heads were collected per sample. 10 μg total protein lysates were subjected to SDS-PAGE electrophoresis on a 4%-20% gradient Tris-HCl gel (Bio-Rad). Monoclonal anti-22C10 against Futsch (1:500) was purchased from the Developmental Studies Hybridoma Bank (DSHB), University of Iowa. For the loading control, an antibody against […] (Abcam) was used at a final concentration of 0.8 μg/ml. The signals were quantified using the Kodak Imaging System software.
# dfmr1 null embryos = assay: Initial small molecule screen: pupae/adult recovery of dfmr1 null embryos on commercial food (CF); details: 12 null embryos per vial, CF supplemented with 40 μM compound, 25° C., 10 to 15 days
# Description: Since the rescue of dfmr1 null lethality is an easily scored phenotype, a relatively high throughput strategy was designed to screen chemical libraries for small molecules that can restore the viability of dfmr1 null flies raised on CF (FIG. 1D). In order to seed test vials with dfmr1 null embryos only, the dfmr1 mutation was balanced with a GFP-TM6C chromosome (w^1118; dfmr1^3/Kr: GFP, TM6C). This allowed sorting of the null dfmr1 mutants from other embryos by the absence of GFP fluorescence using a flow cytometry embryo sorter (COPAS SELECT). […]
# The Spectrum Collection™ compound library was obtained from MicroSource Discovery Systems, Inc. Drugs used in larger quantities for confirmation and subsequent analysis were obtained from Sigma (St. Louis, Mo.) or Tocris-Cookson (UK). […]
# (§1) For the initial screen, 12 dfmr13/dfmr13 (GFP−) embryos were placed in each well of a 96 well plate with CF+40 μM of individual drugs. 96-well plates were kept at 25° C. and the percentage of pupae and adults recovered was scored. […] Adult progeny were counted and the relative viability of homozygous null flies was scored as the percentage of viable adult progeny raised on CF+ drug compared to the progeny on LF alone.
# [2] = test system: homozygous dfmr1-deficient flies; assay: Fly viability assay: rescue of homozygous dfmr1 flies on CF (JAZMIX) plus drug; details: for recovery of homozygous dFmr1 flies: 0% on JAZMIX food alone
# Protocol: In particular, embodiments of the present disclosure include methods of screening compounds using a drosophila (fruit fly) based compound screen to identify drug candidates for the treatment of FMRP-loss related disorders.
# The homozygous embryos are placed into an appropriate container (e.g., a 96-well container) containing a food with a lethal amount of glutamate and with or without a compound from a library of drugs candidates. The embryos were incubated at certain conditions for a certain amount of time (e.g., at about 25° C. for about 10 days) to allow embryonic development. The efficacy of the drug candidate is determined by scoring the number of pupae formation or the emergence of adult flies after a certain time frame. Files or pupae that came out from food with a nonlethal amount of glutamate were used as positive control, and flies or pupae that came out from food with lethal amounts of glutamate without drugs were used as negative control.
# The separated homozygous embryos are then transferred to a regular fly culture vials or a 96-well container (e.g., 20 embryos per well) containing food with a lethal amount of glutamate with or without the drug (e.g., 300 μl of pre-mixed food and the drug). The embryos were incubated at 25° C. for about 10 days to allow embryonic development. The formation of pupae or adult flies can be directly quantified by visual inspection. Efficacy of drugs is determined by scoring the number of pupae formation or the emergence of adult flies after 10 days. Additional details regarding the active compositions and disorders are described in the Examples below.
# (§2) To determine the cause of the observed CF lethality of dfmr1-deficient flies, HPLC amino acid analyses was performed on aqueous extracts of CF and LF food preparations and noted that the CF contained 1.8-fold more glutamate than the LF (FIG. 4). Since this could result in excess glutamate signaling, exacerbating the consequences of dFmrp loss, it was next determined whether supplementing LF with additional glutamate could decrease the viability of dfmr1-deficient flies. […] Indeed, 10 μM MPEP added to the CF rescued the homozygous deficient flies to approximately 60% of their normal viability on LF (FIG. 1C).
# Fifteen of those compounds, as well as the MPEP-positive control, recovered pupal development from at least 25% of the seeded embryos (FIG. 5, Table 1). Each of these top 15 compounds underwent further validation using a larger-scale viability assay. Each vial was seeded with 100 embryos from dfmr1 heterozygous crosses, and adult progeny of both homozygous and heterozygous genotypes were counted 10 days later. Nine of the 15 compounds were validated and, for each of these, a dose-response analysis was performed to optimize the dosage (FIG. 5, Table 1). Using the optimal viability dose for each validated compound, it was explored whether other established phenotypes of dfmr1 deficiency are influenced by a selection of these compounds.
# as §1
# [3] = test system: dfmr1 homozygous null progeny; assay: Viability of flies on laboratory food (LF) supplemented with glutamate; details: glutamate added to LF, p<0.005
# Protocol: FIG. 1B illustrates dfmr1-deficient flies raised on LF are sensitive to supplemented glutamate. Embryos of w^1118, dfmr1^3+/− and dfmr1^3−/− were allowed to develop on LF supplemented with additional glutamate. Relative viability was calculated within each genotype as the percentage of viable adult progeny raised on LF supplemented with glutamate compared to progeny raised on LF alone. (For w^1118 only: anything above 100% was indicated as 100%). (Error bar indicate SEM; *=P<0.005).
# as §2
SMILES,mushroom body defects of dfmr1 mutant adults (in words) [1],elevated Futsch protein level in dfmr1 null flies (in words) (Futsch),percentage of normal brains (mushroom body) after treatment [1] [%],further results
NCCCC(=O)O [GABA],significantly improved,did not significantly influence,,
Cc1cccc(C#Cc2ccccc2)n1 [MPEP],rescued,significantly reduced,,"pupal development recovered, percentage of the seeded embryos (dfmr1 null embryos): at least 25%; viability of homozygous deficient flies relative to their normal viability on LF ([2]; 10 μM MPEP added to CF): approximately 60%; dfmr1^3−/− viability on CF (in words) ([2]; CF supplemented with MPEP (10 μM), FIG. 1C, P<0.005): improved"
CC[C@@H]1C(=O)OC[C@@H]1Cc1cncn1C [Pilocarpine nitrate],,,79,brain structural abnormality (mushroom body formation) in treated dFmr1 flies (in words) [1]: significant suppression; recovery of homozygous dFmr1 flies ([2]; 5 microM in JAZMIX food): 88.5%
CN1CC(=O)NC1=N [creatinine],,,85,recovery of homozygous dFmr1 flies ([2]; 40 microM in JAZMIX food): 123.2%
N[C@@H](CCC(=O)O)C(=O)O [glutamate],,,,viability of dfmr1 homozygous null progeny [3]: dose-dependent decline
CC[C@H]1C(=O)OC[C@@H]1Cc1cncn1C [isopilocarpine],significantly improved,completely rescued,,
O=C(O)C1CCCNC1 (centres unmarked) [nipecotic acid],significantly improved,did not significantly influence,73,brain structural abnormality (mushroom body formation) in treated dFmr1 flies (in words) [1]: significant suppression; recovery of homozygous dFmr1 flies ([2]; 40 microM in JAZMIX food): 84%
